Measurements: patent publication US8084459B2, “Substituted quinazolinones for treating neurological conditions” (Prana Biotechnology Ltd, priority 2004, dated 2011)
Structures can show the parent of a compound that is named as a salt.

What was measured:
[1] = molecular target: T1, Aβ 1-42 (Homo sapiens, UniProt P05067); assay: Assay 1 Fluorometric H2O2 assay (peroxide); type: biochemical; conditions: inhibition of H2O2 generation by Aβ with copper
T1 construct: The reaction solutions contained Aβ 1-42 at concentrations
Method: Assay 1. Fluorometric H2O2 Assay
A fluorometric assay was used to test the ability of a test compound to inhibit hydrogen peroxide generation by Aβ in the presence of copper based on dichlorofluoroscein diacetate (DCF; Molecular Probes, Eugene Oreg.). The DCF solution (5 mM) in 100% dimethyl sulphoxide (previously purged with argon for 1 hr at 20° C.) was deacetylated in the presence of 0.025M NaOH for 30 min and neutralised at pH 7.4 to a final concentration of 1 mM. Horseradish peroxidase (HRP) stock solution was prepared to 1 μM at pH 7.4. The reactions were carried out in PBS, pH 7.4 in a 96 well plate (total volume=250 μl/well). The reaction solutions contained Aβ 1-42 at concentrations in the range of 50 nM to 1 μM, copper-glycine chelate (Cu-Gly), was prepared by adding CuCl2 to glycine in the ratio of 1:6 and added to the Aβ in the proportion 2Cu-Gly:1Aβ), reducing agents including dopamine (5 μM) or ascorbic acid, deacetylated DCF 100 μM, and HRP, 0.1 μM. 1-10 μM EDTA or another chelator may also be present as a control for free copper, but was not required for the assay to function. The reaction mixture was incubated at 37 C for 60 min. Catalase (4000 units/ml) and H2O2 (1-2.5 μM) standards in PBS pH 7.4 may be included as positive controls. Fluorescence was recorded using a plate reader with excitation and emission filters at […] respectively. H2O2 concentration may be established by comparing fluorescence with the H2O2 standards. Inhibition of Aβ H2O2 production was assayed by including a given concentration of test compound(s) in the test wells.

[2] = Assay 3(d) test compound cytotoxicity (MTS); type: cell-based; conditions: BL6Jx129sv, mouse, primary cortical neuronal cultures, cortical neurons; for viability at 4 days, 1 µM: read-out: Assay 3(d) Cytotoxicity (% viable at 1 uM); for viability at 4 days, 10 µM: read-out: Assay 3(d) Cytotoxicity (% viable at 10 uM)
Method: Primary Cortical Neuronal Cultures
Cortical cultures were prepared as previously described (White et al., 1998). Embryonic day 14 BL6Jx129sv mouse cortices were removed, dissected free of meninges and dissociated in 0.025% (wt/vol) trypsin. Dissociated cells were plated in 48 well culture plates at a density of 2×10^6 cells/mL in MEM with 25% (vol/vol) FCS and 5% (vol/vol) HS and incubated at 37° C., 2 hrs. Media was then replaced with Neurobasal media (Invitrogen Life Technologies) and B27 supplements (Invitrogen Life Technologies). Cultures were maintained at 37° C. in 5% CO2. Prior to experimentation, the culture medium was replaced with Neurobasal media and B27 minus antioxidants (Invitrogen Life Technologies).
(a) MTS Assay for Cell Viability
Cell viability is determined using the MTS assay. Culture medium is replaced with fresh neurobasal medium plus B27 supplements minus antioxidants. 1/10 volume MTS solution (Cell Titre 96 Aqueous One, Promega Corporation) and incubated at 37° C., 2 hrs. 200 microlitre aliquots are measured with a spectrophotometer at 560 nm.
(d) Assay for Test Compound Cytoxicity
Neuronal cortical cells were cultured for five days as per Assay 2 in NB media and B27 supplement.
On day six the test compounds were added to the neuronal cell cultures in NB media and B27 supplement minus antioxidants.
Test compounds were dissolved in 100% DMSO to a concentration of 2.5 mM (10 mM if excess compound was weighed out per vial—then diluted to 2.5 mM). 2.5 mM stock solution was serially diluted 1 in 10 to give working solutions of 250 uM, 25 uM, 2.5 uM. Test compounds were not added directly to cells, instead they were added to a 48 well ‘Drug Plate’ as comprised below:
Preparation of “Drug Plate”:
• Well 1: 576 ul NB+B27 (no antioxidant)*+24 ul 2.5 uM test compound • Well 2: 576 ul NB+B27 (no antioxidant)+24 ul 25 uM test compound • Well 3: 576 ul NB+B27 (no antioxidant)+24 ul 250 uM test compound • Well 4: 576 ul NB+B27 (no antioxidant)+24 ul 2.5 uM test compound • Well 5: 576 ul NB+B27 (no antioxidant)+24 ul 25 uM test compound • Well 6: 576 ul NB+B27 (no antioxidant)+24 ul 250 uM test compound • Well 7: 576 ul NB+B27 (no antioxidant)+24 ul test compound diluent** • Well 8: 600 ul NB+B27 (no antioxidant)
The Drug Plate was incubated at 37° C. for 15 mins. 200 ul of each well was added in triplicate to the corresponding cell plate. The cell plate was incubated at 37° C., for 4 days, (2 compounds are tested on each plate of cells).
* NB media and B27 (no antioxidants),
** PBT diluent 10% DMSO in NB+B27 (no antioxidants)
On completion of the assay, 1/10 volume MTS was added per well of plate (ie 25 ul/250 ul). The plates were incubated at 37° C. for 2 hrs, and then absorbance was read at 560 nm.

[3] = Assay 16 mouse plasma levels of test compounds; type: in vivo; conditions: highest level found in mice (Up to); oral dosing 30 mg/kg described for PB 1075-1077
Method: Assay 16. Determination of Mouse Plasma Levels of Test Compounds PB 1075
(§1) Oral administration of PB 1075 at 30 mg/kg, as a suspension in Na-Carboxymethyl Cellulose (CMC) was administered by oral gavage to four mice. Two mice were sacrificed 30 minutes after administration and two mice were sacrificed 60 minutes after administration. Blood was obtained by cardiac puncture and plasma separated by centrifugation.
The concentration of PB 1075 was determined by LC/MS using the triple quadrupole instrument. The mobile phase consisted of an acetonitrile (ACN)/water gradient (containing 0.05% Formic acid) and the column was a Phenomenex Lunea 5 um C8 (50×2 mm) column.
The supplied acute toxicity mouse plasma samples were directly injected following a protein precipitation with ACN. The analytical method in plasma was linear in the range of 10 to 10,000 ng/ml (R^2=0.994). Recovery of PB 1075 from plasma was ˜100%.
as §1, with “1076” for “1075”
The concentration of PB 1076 was determined by LC/MS using the triple quadrupole instrument. The mobile phase consisted of an acetonitrile (ACN)/water gradient (containing 0.05% Formic acid) and the column was a Phenomenex Luna 5 μM C8 (50×2 mm) column.
The mouse plasma samples were directly injected following a protein precipitation with ACN. The analytical method in plasma was linear in the range of 500 to 10,000 ng/ml (R^2=0.999). Recovery of PB 1076 from plasma was ˜85%.
as §1, with “1077” for “1075”
The concentration of PB 1077 was determined by LC/MS using the triple quadrupole instrument. The mobile phase consisted of an acetonitrile (ACN)/water gradient (containing 0.05% Formic acid) and the column was a Phenomenex Luna 5 μM C8 (50×2 mm) column.
The mouse plasma samples were directly injected following a protein precipitation with ACN. The analytical method in plasma was linear in the range of 5 to 5,000 ng/ml (R^2=0.999). Recovery of PB 1077 from plasma was ˜92%.

T1 sequence (P05067 672-713 limits assumed): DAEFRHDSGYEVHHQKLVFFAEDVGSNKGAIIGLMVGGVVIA

Compound | IC50 [1] [nM] | Assay 16 Mice plasma concentration [3] | viability at 4 days, 1 µM [2] [%] | viability at 4 days, 10 µM [2] [%]
C/C=C/Cn1cnc2c(O)c(Cl)cc(Cl)c2c1=O [Compound 1126] | 370 | – | – | –
CNCc1nc2c(O)c(Cl)cc(Cl)c2c(=O)n1C [Compound 1161] | 140 | – | – | –
Cc1cnc(-n2cnc3c(O)c(Cl)cc(Cl)c3c2=O)s1 [Compound 1082] | 4500 | – | 94 | 70
CCn1cnc2c(O)ccc(Cl)c2c1=O [Compound 1130] | 880 | – | – | –
Nn1cnc2c(O)c(Cl)cc(Cl)c2c1=O [Compound 1099, 3-Amino-5,7-dichloro-8-hydroxy-3H-quinazolin-4-one hydrobromide] | 690 | – | – | –
CCn1cnc2c(O)c(Cl)cc(Cl)c2c1=O [Compound 1115] | 730 | – | 101 | 73
O=c1c2c(Cl)cc(Cl)c(O)c2ncn1-c1cccnc1 [Compound 1092] | 860 | – | 95 | 81
CCCn1cnc2c(O)ccc(Cl)c2c1=O [Compound 1131] | 500 | – | – | –
Br.CC(C)n1cnc2c(O)c(Cl)cc(Cl)c2c1=O [Compound 1108] | 250 | – | 100 | 53
CN(C)Cc1nc2c(O)c(Cl)cc(Cl)c2c(=O)[nH]1 [Compound 1147] | 260 | – | – | –
CC(Br)CCn1cnc2c(O)c(Cl)cc(Cl)c2c1=O (centres unmarked) [Compound 1114] | 580 | – | – | 73
Cn1c(-n2cnc3c(O)c(Cl)cc(Cl)c3c2=O)nc2ccccc21 [Compound 1083] | 2300 | – | – | 97
CN1CCCC1CCn1cnc2c(O)c(Cl)cc(Cl)c2c1=O (centres unmarked) [Compound 1078] | 730 | Up to 262 ng/mL in | 94 | 94

Continued by falling IC50 [1], values first:

IC50 [1] [nM] | Assay 16 Mice plasma concentration [3] | Compound | viability at 4 days, 1 µM [2] [%] | viability at 4 days, 10 µM [2] [%]
460 | – | CCN(CC)CCn1cnc2c(O)c(Cl)cc(Cl)c2c1=O [Compound 1110] | – | 77
440 | – | Br.Cc1cccnc1Cn1cnc2c(O)c(Cl)cc(Cl)c2c1=O [Compound 1098] | 99 | 88
400 | – | Br.CC(C)Cn1cnc2c(O)c(Cl)cc(Cl)c2c1=O [Compound 1107] | 92 | 59
390 | – | O=c1c2c(Cl)cc(Cl)c(O)c2ncn1N1CCCCC1 [Compound 1086] | 98 | 51
390 | – | COc1ccc(-n2cnc3c(O)c(Cl)cc(Cl)c3c2=O)cn1 [Compound 1093] | 122 | 13
330 | Upto 2949 ng/mL in | Br.CCC(C)n1cnc2c(O)c(Cl)cc(Cl)c2c1=O (centres unmarked) [Compound 1112] | 89 | 46
320 | – | CCCCn1cnc2c(O)c(Cl)cc(Cl)c2c1=O [Compound 1111] | 93 | 67
